Data reported in patent US5472951A, “Stabilizer for phospholipid vesicles” (Chiba Flour Milling Co., Ltd., priority 1992, dated 1995).
One block for each compound: values may come before it.

Experiments:
[1] = aggregation on addition of dextran: turbidity at 800 nm; format: physicochemical; details: dextran
Procedure: The precipitation of the vesicles was dispersed again to be 5 wt %, and thereto dextran (molecular weight of 40000) was added as a colloid osmotic pressure controller. The stability of the dispersion was observed by determination of turbidity at 800 nm.
The stability of the MPDSPE-modified vesicle was evaluated by adding, to the above dispersion, dextran (molecular weight: 4000) which is a colloid osmotic pressure controller, and measuring the turbidity from the absorbance at 800 nm. […] This proves the aggregation inhibition effect of the MPDSPE of the vesicle stabilizer of the present invention.
The resulting dispersion was treated with a microfluidizer at 2500 psi at 4° C. for 15 minutes to obtain a dispersion of SDSPE-modified vesicles having average particle diameter of 350±95 nm. This dispersion was centrifuged (100000 G, 30 minutes) to obtain a precipitate of vesicles. The precipitate was dispersed again into a solution to be 5% by weight. Occurrence of aggregation of the vesicles was tested by adding dextran (molecular weight 40000) to the dispersion and measuring the turbidity change at 800 nm. […] Therefrom the modification was confirmed to be effective to inhibition of aggregation caused by dextran.
5.0 g of a powdery lipid mixture containing the above STEC (DPPC:cholesterol:stearic acid:STEC=7:7:2:2 in molar ratio) was dispersed in 100 ml of saline, and the dispersion was stirred at 4° C. for 24 hours. The resulting dispersion was treated with a microfluidizer at 2500 psi at 4° C. for 15 minutes. This dispersion was centrifuged (10000 G, 30 minutes) to obtain precipitate of STEC-modified vesicles. The precipitate was dispersed again in to saline to be 5 wt %. The stability of the vesicles was evaluated by adding 2.5 wt % solution of dextran (molecular weight 40000) to the above vesicle layer and measuring the turbidity change at 800 nm. The STEC-modified vesicles caused the turbidity increase of 58% of that of the unmodified vesicles (DPPC:cholesterol:stearic acid=7:7:2 in molar ratio), thereby the inhibition effect of STEC, a vesicle stabilizer of the present invention being confirmed.

[2] = introduction ratio into mixed lipid vesicles; format: physicochemical
Procedure: (§1) The ratio of introduction of the stabilizer into the vesicles is determined by treating the dispersion of the vesicles by gel filtration or ultracentrifuge to remove the superfluous stabilizer which has not been introduced into the vesicles, and quantitatively determining saccharide in respective fractions by a phenol-sulfuric acid method. The stabilizer of the present invention, when employed in an amount of from 2 to 10 mol %, is introduced into the vesicles in a ratio of 90% or more.
The effect of the LPMS of the present invention on stabilization of vesicles was evaluated as follows. A powdery lipid mixture containing LPMS was prepared from dimyristoyl phosphatidylcholine, cholesterol, myristic acid, and LPMS (in molar ratio of 7:7:2:0.3) was prepared by freeze-drying. 100 ml of saline was added to 10 g of the above powdery lipid mixture, and the mixture was stirred at 4° C. for 24 hours to prepare a liquid dispersion. […] The introduction ratio of the LPMS was 85% according to saccharide determination of the supernatant liquid after centrifugation.
500 mg of a powdery lipid mixture containing MPDSG of the present invention was prepared from DPPC, cholesterol, distearyl phosphatidic acid, and MPDSG (in molar ratio of 10:9:0.9:0.5) was prepared by freeze-drying from benzene. […]

[3] = particle diameter of modified vesicles; format: physicochemical
[4] = introduction ratio of ODM into DODPC vesicles; format: physicochemical
Procedure: Polymerizable 2,4-octadecadienyl-0-α(β)-maltose (hereinafter referred to as "ODM") was prepared from maltose and 2,4-octadecadienol according to the method shown in Example 11. A solution of 2.0 mg of this ODM in 1 ml of chloroform was mixed with a solution of 200 mg of di(2,4-octadecadienoyl)phosphatidylcholine (hereinafter referred to as "DODPC") as a polymerizable lipid in 5 ml of chloroform. The mixture was evaporated by a rotary evaporator to form a thin film on a wall of an eggplant-shape flask. 20 ml of pure water was added thereto, and agitated with glass beads by a vortex mixer. The resulting ODM-modified vesicle dispersion was treated by an extruder to prepare a dispersion of nearly uniform particle diameters. The vesicle dispersion was irradiated with γ-ray to copolymerize the ODM and the polymerizable lipid, DODPC. A portion of the irradiated dispersion was diluted fivefold with pure water and was left standing at 4° C. for 24 hours. The introduction ratio of ODM was measured by centrifuging the diluted and undiluted dispersions (300000 G, 60 minutes) respectively and determining the ODM in the supernatant by a phenol-sulfuric acid method.

[5] = turbidity increase of copolymerized vesicle dispersion, 4 °C for 24 hours; format: physicochemical; details: before fivefold dilution
[6] = tested on: washed human RBC (red blood cell); details: washed red blood cells, 2 h, pH 7.4
[7] = introduction ratio into the vesicle (phenol-sulfuric acid method); format: physicochemical; details: 3 mg MPDSG per 100 mg DPPC; dispersion diluted to 0.5% by weight, gel filtration
Procedure: as §1
(§2) The stability of the vesicle dispersion which had been passed through the 0.05 μm filter was evaluated by measuring the change of absorbance (turbidity) at 500 nm with time on standing at room temperature by means of a UV-visible light spectrophotometer.
2.4 mg of DOMG prepared in the same manner as in Example 11 was dissolved in 1 ml of chloroform. This solution was mixed with a solution of 100 mg of DPPC in 5 ml of chloroform, thereby DOMG being 2 mol % of DPPC. The solution mixture was evaporated by means of an evaporator to form a thin film on the inside wall of an eggplant-shape flask. Then 10 ml of pure water was added thereto so as to obtain a concentration of 1.0% by weight of the vesicles. The mixture was stirred with glass beads by means of a vortex mixer, and subsequently treated by an extruder to prepare a dispersion of DOMG-modified DPPC vesicles having controlled diameters of particles. A portion of the resulting dispersion was diluted to a fivefold volume with pure water to prepare a dispersion having vesicle concentration of 0.2% by weight.
The two dispersions of the DOMG-modified vesicles having concentrations of 1.0% by weight and 0.2% by weight were left standing at 4° C. for 24 hours, and were ultracentrifuged (300000 G, 60 minutes). The free DOMG in the supernatant was determined by a phenol-sulfuric acid method, and therefrom the ratio of introduction DOMG to the vesicles was calculated.
As the results, the introduction ratios were 94.3%, and 77.0% respectively at the vesicle concentrations of 1.0% by weight and 0.2% by weight. The results are shown in Table 4 together with the results of Comparative Examples 6 and 7 described later in which an oligosaccharide derivative was employed.

[8] = viscosity of vesicle dispersion on addition of calcium ion (rotating viscometer); format: physicochemical; details: 5 mM calcium chloride
Procedure: The stability of the vesicles was evaluated as below. The precipitate of the vesicles prepared by centrifuge was dispersed again into saline by a vortex mixer. To this sample, calcium chloride (as calcium ion) was added to be 5 mM, and the viscosity of the dispersion was measured with a rotating viscometer (Vismetron VS-AK). The viscosity of 5 cp was not changed by addition of the calcium ion.
To this dispersion, calcium chloride (as calcium ion) was added to be 5 mM, and the viscosity of the dispersion was measured with a rotating viscometer (Vismetron VS-AK).
To this dispersion, calcium chloride (as calcium ion) was added to be 5 mM, and the viscosity of the dispersion was measured with a rotating viscometer (Vismetron VS-AK). The viscosity of 5 cp was not changed by addition of the calcium ion. On the contrary, the dispersion of the vesicles prepared from powdery lipid mixture not containing DACOA (DPPC:cholesterol:distearylphosphatidic acid=10:9:0.9 in molar ratio) aggregated immediately on addition of calcium ion because of negative charge on the surface of the vesicle, causing the viscosity rise up to 11 cp.
The stability of the dispersion of the DOLG-modified vesicles having adjusted particle diameters was evaluated by addition of 5 mM calcium chloride and observing the viscosity change. The viscosity was measured at 37° C. by a rotating viscometer. […] On the contrary, a dispersion of unmodified vesicles prepared from a powdery lipid mixture containing no DOLG (DPPC:cholesterol:stearic acid=7:7:2 in molar ratio) caused immediate aggregation of the vesicles on addition of calcium ion in the same manner as above because of the negative charge on the surface of the vesicle, and the viscosity increased up to 11 cp. Accordingly, the sufficient effect of the DOLG, a vesicle stabilizer of the present invention, was confirmed in inhibiting the aggregation of vesicles by calcium ion.

[9] = change of turbidity at 500 nm with time on standing at room temperature (FIG. 1); format: physicochemical; details: 0.5% by weight
Procedure: The dispersion stability of the vesicle is evaluated by measuring the change with time of the absorbance (turbidity) with a spectrophotometer at a wavelength of 500 to 800 nm of the gel-filtered dispersion which is left standing at room temperature. Otherwise, the dispersion stability of the vesicle can be measured by the viscosity of the vesicle dispersion with a rotating viscometer, or microscopic observation by electron microscopy.
The ability of the oligosaccharide lipid of the present invention, namely of MPDSG, for stabilizing a vesicle was evaluated as follows. 3 mg of MPDSG and 100 mg of dipalmitoyl phosphatidylcholine (hereinafter referred to "DPPC") as a phospholipid were dissolved in methanol. The methanol was evaporated by use of a rotary evaporator to form a thin film on the inside wall of an eggplant shape flask. Thereto, 5 ml of pure water and several glass beads were added, and the content of the flask was agitated at 60° C. by means of a vortex mixer to form a whitish turbid liquid. This whitish turbid liquid was treated with an extruder. […]
as §2

[10] = rat, in vivo
[11] = mixed lipid vesicles, microfluidizer

introduction ratio of ODM ([4]; copolymerized by γ-ray, both diluted (fivefold) and undiluted dispersions): 94.2%
introduction ratio of ODM ([4]; not copolymerized, after fivefold dilution): 66.9%
introduction ratio of ODM ([4]; not copolymerized, before fivefold dilution): 93.8%
turbidity increase relative to unmodified vesicles [5]: 10.9%
Compound: CCCCCCCCCCCCCC=CC=CCOC1O[C@H](CO)[C@@H](O[C@H]2O[C@H](CO)[C@@H](O)[C@H](O)[C@H]2O)[C@H](O)[C@H]1O (stereo partly drawn) [ODM, 2,4-octadecadienyl-0-α(β)-maltose]

turbidity change on addition of dextran (in words) [1]: little rise of turbidity
average diameter [3, 11]: 350±95 nm
Compound: CCCCCCCCCCCCCCCCCC(=O)OCC(COP(=O)(O)OCCNC(=O)[C@H](O)[C@@H](O)[C@H](O[C@@H]1O[C@H](CO)[C@@H](O)[C@H](O)[C@H]1O)[C@H](O)CO)OC(=O)CCCCCCCCCCCCCCCCC (stereo partly shown) [SDSPE, cellobiose distearoylphosphatidyl ethanolamine]

Further lines, the compound ahead of its results:

Compound: CCCCCCCCCCCCCCCCCCOC1O[C@H](CO)[C@@H](O)[C@H](O[C@@H]2O[C@H](CO)[C@@H](O)[C@H](O[C@@H]3O[C@H](CO)[C@@H](O)[C@H](O[C@@H]4O[C@H](CO)[C@@H](O)[C@H](O[C@@H]5O[C@H](CO)[C@@H](O)[C@H](O)[C@H]5O)[C@H]4O)[C@H]3O)[C@H]2O)[C@H]1O (stereo partly shown) [LPMS, laminaripentaose monostearyl ether]
turbidity change on addition of dextran (in words) [1]: did not give turbidity increase
introduction ratio ([2]; dimyristoyl phosphatidylcholine:cholesterol:myristic acid:LPMS 7:7:2:0.3): 85%
average diameter [3, 11]: 300±130 nm

Compound: CCCCCCCCCCCCCCCCCC(=O)OCC(COP(=O)(O)OCCNC(=O)[C@H](O)[C@@H](O)[C@H](O[C@H]1O[C@H](CO)[C@@H](O[C@H]2O[C@H](CO)[C@@H](O[C@H]3O[C@H](CO)[C@@H](O[C@H]4O[C@H](CO)[C@@H](O)[C@H](O)[C@H]4O)[C@H](O)[C@H]3O)[C@H](O)[C@H]2O)[C@H](O)[C@H]1O)[C@H](O)CO)OC(=O)CCCCCCCCCCCCCCCCC (stereo partly shown) [MPDSPE, Maltopentaose distearoyl phosphatidyl ethanolamide]
turbidity change on addition of dextran (in words) [1]: did not show turbidity rise
average diameter [3, 11]: 320±115 nm

Compound: maltopentaose distearyl glycerol [MPDSG]
hemolysis [6]: 5%
introduction ratio into the vesicle [7]: 99%
inhibition of aggregation of vesicles by calcium ion (in words) [8]: inhibited nearly completely
viscosity change on addition of calcium ion (in words) [8]: not changed
viscosity of the dispersion with calcium ion ([8]; Vismetron VS-AK): 5 cp
introduction ratio ([2]; DPPC:cholesterol:distearyl phosphatidic acid:MPDSG 10:9:0.9:0.5): 98%
average diameter ([3]; DPPC vesicle, 0.05 μm extruder, particle size analyzer): 57±12 nm
average diameter ([3]; DPPC vesicle, 0.05 μm extruder, transmission electron microscope with negative stain): 55±10 nm
average particle diameter ([3]; hemoglobin-enclosing vesicles after 0.2 μm extrusion and gel filtration): 203±50 nm
average diameter ([3]; hemoglobin-enclosing vesicles, microfluidizer, before 0.2 μm extrusion): 300±98 nm
average particle diameter ([3]; mixed lipid vesicles, 0.2 μm filter by extruder): 200 nm
inhibition of aggregation (in words) [9]: little turbidity increase later, showing the inhibition of the aggregation
turbidity rise in comparison with that of the unmodified vesicle [9]: about 7%
average half-life from the blood stream [10]: 38 h
